Experimental data as given in patent US9144248B2, “Cinnamamides as savory flavorings” (SYMRISE AG, priority 2011, dated 2015).
“Also recorded” adds a separate entry of the source.

Tests used:
Type in all cases: in vivo, human
[1] = Profiling of cinnamides in a complex base (American beef extract) by 15-25 trained panelists, descriptors scored 0-9, compared with MSG; conditions: for umami taste character compared with monosodium glutamate: comparison base + 0.05 wt. % MSG
Method: An American beef extract as the base, a corresponding base mixed with monosodium glutamate and a corresponding base mixed with the cinnamide were in each case administered blind individually to 15-25 trained panelists for profiling. Using the descriptors previously decided upon by discussion (mouth-fill, salty, metallic, meaty, bitter, mouth-watering, barbecued-roasted, sweet, sour, lingering) the strength of these was assessed on a scale of 0 (imperceptible) through 9 (very strong). The individual results of the panelists were averaged.
In the spider chart attached as FIG. 1 the profile of an American beef extract as the base (i) is compared with such a base with the addition of 10 ppm (iii) or 50 ppm rubemamine ([…]) (iv) and with a sample (ii) of such a base with the addition of 0.05 wt. % MSG (monosodium glutamate).
In the spider chart attached as FIG. 2 the profile of an American beef extract as the base (i) is compared with such a base with the addition of 5 ppm (iii) or 10 ppm rubescenamine (compound (3)) (iv) and with a sample (ii) of such a base with the addition of 0.05 wt. % MSG (monosodium glutamate).
The taste of a 0.5% American beef extract as base (i) was compared in a tasting by a panel of trained test subjects with the taste of such a base with 10 ppm (iii) or 50 ppm (iv) rubemamine (1) added, and such a base with 0.05 wt. % MSG added (ii).
The test subjects assessed the strength of the stated flavors by giving a score on a scale of 0 (imperceptible) through 9 (very strong corresponding taste). The mean values of the respective scorings are shown.
The taste of a 0.5% American beef extract as base (i) was compared in a tasting by a panel of trained test subjects with the taste of such a base with 5 ppm (iii) or 10 ppm (iv) rubescenamine (3) added, and such a base with 0.05 wt. % MSG added (ii).

[2] = Profiling of cinnamides in American beef extract base together with monosodium glutamate (enhancing effect), trained panel, descriptors scored 0-9; conditions: for enhancement of the monosodium glutamate effect: sample (iv) versus sample (ii) base + 0.05% MSG, FIG. 3: 20 ppm + 0.0025% monosodium glutamate in beef extract base
Method: An American beef extract as the base, a corresponding sauce mixed with monosodium glutamate, a corresponding sauce mixed with the cinnamide and a corresponding base mixed with monosodium glutamate were in each case administered blind individually to 15-25 trained panelists for profiling. Using the descriptors previously decided upon by discussion (mouth-fill, salty, metallic, meaty, bitter, mouth-watering, barbecued-roasted, sweet, sour, lingering) the strength of these was assessed on a scale of 0 (imperceptible) through 9 (very strong). The individual results of the panelists were averaged. […]
Here again (i) a beef extract as the base is compared with (ii) such a base with the addition of 0.05% monosodium glutamate, (iii) such a base with the addition of 0.0025% monosodium glutamate and (iv) such a base with the addition of 0.0025% monosodium glutamate and 5 ppm rubescenamine (3). […]
The test subjects assessed the strength of the stated flavors by giving a score on a scale of 0 (imperceptible) through 9 (very strong corresponding taste). The mean values of the respective scorings are shown. […]

[3] = Simple profiling of cinnamides dissolved in water, tasting by a group of experts with open discussion
Method: The compounds were dissolved in water in the stated concentration and assessed by a group of experts by tasting with open discussion.

[4] = 5 ppm + 0.0025% monosodium glutamate in beef extract base, listed as rubescenamine (3)

COc1ccc(/C=C/C(=O)NCCc2ccc(OC)c(OC)c2)cc1OC [Compound (1), rubemamine]
umami taste character compared with monosodium glutamate ([1]; 10 mg/kg test concentration in American beef extract base): umami taste that is very similar to that of monosodium glutamate | enhancement of the monosodium glutamate effect: sample (iv) versus sample (ii) base + 0.05% MSG, FIG. 3 [2]: hardly distinguishable from one another other than a slightly lower sweetness | enhancement of the monosodium glutamate effect: sample (iv) versus sample (ii) base + 0.05% MSG, FIG. 3 ([2]; listed as rubemamine (1)): virtually indistinguishable | Taste profile (concentration in mg/kg) ([3]; 10 mg/kg): Umami (10 mg/kg)

COc1ccc(/C=C/C(=O)NCCc2ccc3c(c2)OCO3)cc1OC [Compound (3), rubescenamine]
umami taste character compared with monosodium glutamate ([1]; 5 mg/kg test concentration in American beef extract base): umami taste that is very similar to that of monosodium glutamate | taste profile, strength of descriptors (scale 0-9), FIG. 2 curve iii ([1]; 5 ppm in American beef extract base): strong effect | taste profile, strength of descriptors (scale 0-9), FIG. 2 curve iv, versus sample (ii) base + 0.05 wt. % MSG ([1]; 10 ppm in American beef extract base): for most descriptors is able to achieve a similarly strong assessment to sample (ii) | enhancement of the monosodium glutamate effect: sample (iv) versus sample (iii) base + 0.0025% MSG, FIG. 4 ([2]; 5 ppm + 0.0025% monosodium glutamate in beef extract base): in respect of virtually all parameters was assessed as stronger than sample (iii) | "salty" parameter: sample (iv) versus sample (ii) base + 0.05% MSG, FIG. 4 [2, 4]: assessed similarly to sample (ii) | enhancement of the monosodium glutamate effect: sample (iv) versus sample (iii) base + 0.0025% MSG, FIG. 4 [2, 4]: assessed more strongly on virtually all parameters than sample (iii) | Taste profile (concentration in mg/kg) ([3]; 10 mg/kg): Umami, otherwise neutral (10 mg/kg)

O=C(/C=C/c1ccccc1)NCCc1ccc2c(c1)OCO2 [Compound (9), zanthomamine]
enhancement of the monosodium glutamate effect: sample (iv) versus sample (iii) base + 0.0025% MSG, FIG. 5 ([2]; 50 ppm + 0.0025% monosodium glutamate in beef extract base): assessed more strongly on virtually all parameters than sample (iii) | Taste profile (concentration in mg/kg) ([3]; 50 mg/kg): Somewhat delayed onset of umami effect (50 mg/kg)

N[C@@H](CCC(=O)O)C(=O)[O-].[Na+] [monosodium glutamate, reference compound]
taste profile of sample (iii) versus base (i) without addition, FIG. 3 ([2]; 0.0025% monosodium glutamate alone in beef extract base): perceived as less strong than the sample (i) without the addition; also recorded: perceived only slightly less strongly than sample (i) without the addition
